# Like-named read-outs stand apart in the source and are kept apart here.
# Columns and labels:
# [1] = target: T1, EGFR (Homo sapiens, UniProt P00533); assay: kinase panel (Eurofins), residual activity at […]; type: biochemical
# [2] = target: T2, CLK4 (Homo sapiens, UniProt Q9HAZ1); assay: kinase panel (Eurofins), residual activity at […]; type: biochemical
# [3] = target: T3, MAPK1(h) (Homo sapiens, UniProt P27361); assay: biochemical; design: Eurofins kinase panel, residual kinase activity (%) at 10 uM relative to DMSO
# T3 construct: gene MAPK3
# T3 sequence (P27361 whole entry): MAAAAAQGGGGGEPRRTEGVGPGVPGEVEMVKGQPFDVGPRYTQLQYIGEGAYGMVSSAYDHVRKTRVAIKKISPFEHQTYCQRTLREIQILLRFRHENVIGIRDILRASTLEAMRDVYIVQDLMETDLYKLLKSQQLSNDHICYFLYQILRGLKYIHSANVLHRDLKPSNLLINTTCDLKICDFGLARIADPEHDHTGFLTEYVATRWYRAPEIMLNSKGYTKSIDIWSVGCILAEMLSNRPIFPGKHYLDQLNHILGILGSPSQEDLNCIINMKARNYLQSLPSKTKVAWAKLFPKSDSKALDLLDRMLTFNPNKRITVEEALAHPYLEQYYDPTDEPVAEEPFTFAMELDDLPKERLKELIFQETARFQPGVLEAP
# Procedure: (§1) Eurofins performed a “Full KP Panel [Km ATP], KinaseProfile” which contains 429 radiometric kinase activity assays. The remaining kinase activity (%) was determined after treatment with the compounds at a concentration of 10 µM (Cfr. supporting information). Since we could not confirm the interaction between Spautin-1 analogues and USP13, a kinase screening was performed using a set of four compounds (Spautin-1 and three analogues) to discover off-targets and identify kinases that are potentially responsible for the reduction in cell viability observed in our screen (Table 2). The KINOMEscan from Eurofins was performed (see Table S1). This screen consists of a competitive binding assay in which the DNA-tagged kinase is incubated with one of the compounds in the presence of immobilized active site binding ligands. Binding of the compounds to the kinase hampers the binding of the kinase to the ligands and this inhibition was quantified by qPCR.
# [4] = target: T4, MAPK2(h) (Homo sapiens, UniProt P28482); assay: biochemical; design: Eurofins kinase panel, residual kinase activity (%) at 10 uM relative to DMSO
# T4 construct: gene MAPK1
# T4 sequence (P28482 whole entry): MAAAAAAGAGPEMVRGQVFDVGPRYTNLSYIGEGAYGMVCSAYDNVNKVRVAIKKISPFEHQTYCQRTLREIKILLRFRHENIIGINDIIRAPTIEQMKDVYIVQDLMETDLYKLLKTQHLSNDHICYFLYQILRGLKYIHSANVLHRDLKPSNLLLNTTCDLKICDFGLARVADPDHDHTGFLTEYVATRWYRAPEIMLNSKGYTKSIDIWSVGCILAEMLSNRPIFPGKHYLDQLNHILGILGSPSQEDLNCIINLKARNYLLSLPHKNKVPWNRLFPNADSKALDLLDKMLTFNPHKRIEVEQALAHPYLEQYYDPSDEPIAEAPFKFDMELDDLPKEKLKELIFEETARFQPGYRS
# Procedure: as §1
# [5] = target: T5, MAPK2(m) (Mus musculus, UniProt P63085); assay: biochemical; design: Eurofins kinase panel, residual kinase activity (%) at 10 uM relative to DMSO
# T5 construct: gene Mapk1
# T5 sequence (P63085 whole entry): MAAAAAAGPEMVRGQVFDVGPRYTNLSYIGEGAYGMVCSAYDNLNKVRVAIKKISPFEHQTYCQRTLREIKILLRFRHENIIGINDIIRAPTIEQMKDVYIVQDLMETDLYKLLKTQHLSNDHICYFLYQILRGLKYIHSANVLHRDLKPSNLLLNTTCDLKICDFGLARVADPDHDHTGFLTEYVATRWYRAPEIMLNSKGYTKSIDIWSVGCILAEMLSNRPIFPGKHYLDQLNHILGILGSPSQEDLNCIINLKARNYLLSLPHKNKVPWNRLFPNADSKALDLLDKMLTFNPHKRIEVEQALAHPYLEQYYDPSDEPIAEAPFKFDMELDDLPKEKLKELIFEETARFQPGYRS
# Procedure: as §1
# [6] = target: T6, MLCK(h) (Homo sapiens, UniProt Q15746); assay: biochemical; design: Eurofins kinase panel, residual kinase activity (%) at 10 uM relative to DMSO
# T6 construct: gene MYLK
# T6 sequence (Q15746 whole entry): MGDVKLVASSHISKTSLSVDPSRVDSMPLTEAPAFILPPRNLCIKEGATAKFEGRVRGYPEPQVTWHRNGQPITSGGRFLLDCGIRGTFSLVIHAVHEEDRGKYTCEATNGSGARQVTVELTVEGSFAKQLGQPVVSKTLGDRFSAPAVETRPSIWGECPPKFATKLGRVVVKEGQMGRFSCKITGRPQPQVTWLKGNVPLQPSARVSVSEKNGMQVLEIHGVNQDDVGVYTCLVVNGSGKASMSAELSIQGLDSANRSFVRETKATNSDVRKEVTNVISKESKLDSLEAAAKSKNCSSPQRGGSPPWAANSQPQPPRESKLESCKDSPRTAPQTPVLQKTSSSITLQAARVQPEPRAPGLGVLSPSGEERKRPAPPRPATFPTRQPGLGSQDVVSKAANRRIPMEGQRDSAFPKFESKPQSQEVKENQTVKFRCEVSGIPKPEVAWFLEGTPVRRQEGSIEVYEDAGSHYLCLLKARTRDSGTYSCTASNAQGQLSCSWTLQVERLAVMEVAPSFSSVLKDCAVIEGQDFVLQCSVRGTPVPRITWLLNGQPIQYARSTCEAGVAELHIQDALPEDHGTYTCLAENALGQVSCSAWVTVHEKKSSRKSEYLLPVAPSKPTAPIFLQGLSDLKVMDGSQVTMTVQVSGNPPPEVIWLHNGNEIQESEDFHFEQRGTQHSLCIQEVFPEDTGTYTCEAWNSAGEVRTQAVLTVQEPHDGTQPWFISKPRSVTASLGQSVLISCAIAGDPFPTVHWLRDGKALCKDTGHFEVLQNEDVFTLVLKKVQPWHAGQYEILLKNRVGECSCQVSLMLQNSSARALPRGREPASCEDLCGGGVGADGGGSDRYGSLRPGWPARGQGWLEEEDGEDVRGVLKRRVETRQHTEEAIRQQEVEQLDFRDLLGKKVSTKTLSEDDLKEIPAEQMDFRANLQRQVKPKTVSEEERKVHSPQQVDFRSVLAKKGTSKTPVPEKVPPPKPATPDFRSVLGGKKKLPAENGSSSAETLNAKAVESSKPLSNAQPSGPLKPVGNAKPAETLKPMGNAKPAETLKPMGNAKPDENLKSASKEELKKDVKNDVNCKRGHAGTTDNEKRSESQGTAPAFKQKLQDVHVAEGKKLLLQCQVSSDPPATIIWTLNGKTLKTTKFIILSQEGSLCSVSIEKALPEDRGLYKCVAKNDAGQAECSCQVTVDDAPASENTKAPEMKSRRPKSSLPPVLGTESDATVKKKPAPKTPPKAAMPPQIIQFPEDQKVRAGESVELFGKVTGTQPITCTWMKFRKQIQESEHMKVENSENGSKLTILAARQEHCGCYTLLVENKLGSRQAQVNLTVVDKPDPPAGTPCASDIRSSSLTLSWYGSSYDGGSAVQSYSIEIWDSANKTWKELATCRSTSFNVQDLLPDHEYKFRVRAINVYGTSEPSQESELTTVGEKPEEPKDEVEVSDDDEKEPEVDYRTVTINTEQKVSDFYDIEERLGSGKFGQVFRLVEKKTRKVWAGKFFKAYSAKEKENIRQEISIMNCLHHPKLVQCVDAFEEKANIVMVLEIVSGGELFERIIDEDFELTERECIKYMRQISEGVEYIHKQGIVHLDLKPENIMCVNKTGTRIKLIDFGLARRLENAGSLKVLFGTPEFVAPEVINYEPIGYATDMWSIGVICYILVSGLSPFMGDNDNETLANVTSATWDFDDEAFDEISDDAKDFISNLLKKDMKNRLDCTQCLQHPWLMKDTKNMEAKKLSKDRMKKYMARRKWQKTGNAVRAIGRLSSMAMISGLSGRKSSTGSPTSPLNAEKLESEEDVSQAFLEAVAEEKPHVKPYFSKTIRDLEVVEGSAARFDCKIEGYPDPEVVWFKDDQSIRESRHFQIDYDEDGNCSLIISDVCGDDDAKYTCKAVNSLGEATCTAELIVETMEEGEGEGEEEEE
# Procedure: as §1
# [7] = target: T7, NEK4 (Homo sapiens, UniProt P51957); assay: radiometric kinase assay (Eurofins), IC50; type: biochemical
# [8] = target: T2, CLK4; assay: biochemical; design: Eurofins KinaseProfiler full panel at Km ATP, residual kinase activity (%) relative to DMSO
# How it was run: (§2)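 Radiometric kinase activity assays were run with ATP at Km and compounds at 10 µM, and remaining activity (%) was reported. A separate competitive binding screen measured DNA-tagged kinase displaced from immobilized active-site ligands by qPCR, giving percent kinase still bound at 10 µM compound in DMSO.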
# [9] = target: T1, EGFR; assay: biochemical; design: Eurofins KinaseProfiler full panel at Km ATP, residual kinase activity (%) relative to DMSO
# How it was run: as §2
# [10] = target: T7, NEK4; assay: kinase panel (Eurofins), residual activity at […]; type: biochemical; details: read-out: [drawing 3] / Residual Activity (%)
# [11] = read-out: [drawing 2] / Residual Activity (%)
# [12] = read-out: Residual activity (%) 5ay
# [13] = read-out: [drawing 1] / Residual Activity (%)
# [14] = read-out: Residual activity (%) Spautin-1
# [15] = read-out: Residual activity (%) 5at
# [16] = read-out: Residual activity (%) 5as
# T2 sequence (Q9HAZ1 whole entry): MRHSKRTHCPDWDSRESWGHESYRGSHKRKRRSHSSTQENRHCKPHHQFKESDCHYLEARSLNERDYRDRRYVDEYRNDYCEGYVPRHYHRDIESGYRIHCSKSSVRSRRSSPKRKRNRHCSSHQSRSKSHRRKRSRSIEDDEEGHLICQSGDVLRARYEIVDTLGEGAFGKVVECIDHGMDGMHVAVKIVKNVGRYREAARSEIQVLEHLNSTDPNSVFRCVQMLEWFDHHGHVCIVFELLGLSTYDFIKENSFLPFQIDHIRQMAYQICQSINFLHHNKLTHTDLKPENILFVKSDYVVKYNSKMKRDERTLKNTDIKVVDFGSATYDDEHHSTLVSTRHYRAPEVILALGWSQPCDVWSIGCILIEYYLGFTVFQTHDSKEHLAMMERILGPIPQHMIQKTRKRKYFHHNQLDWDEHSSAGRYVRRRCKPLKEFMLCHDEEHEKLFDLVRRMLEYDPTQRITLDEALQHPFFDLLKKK
# T1 sequence (P00533 25-1210): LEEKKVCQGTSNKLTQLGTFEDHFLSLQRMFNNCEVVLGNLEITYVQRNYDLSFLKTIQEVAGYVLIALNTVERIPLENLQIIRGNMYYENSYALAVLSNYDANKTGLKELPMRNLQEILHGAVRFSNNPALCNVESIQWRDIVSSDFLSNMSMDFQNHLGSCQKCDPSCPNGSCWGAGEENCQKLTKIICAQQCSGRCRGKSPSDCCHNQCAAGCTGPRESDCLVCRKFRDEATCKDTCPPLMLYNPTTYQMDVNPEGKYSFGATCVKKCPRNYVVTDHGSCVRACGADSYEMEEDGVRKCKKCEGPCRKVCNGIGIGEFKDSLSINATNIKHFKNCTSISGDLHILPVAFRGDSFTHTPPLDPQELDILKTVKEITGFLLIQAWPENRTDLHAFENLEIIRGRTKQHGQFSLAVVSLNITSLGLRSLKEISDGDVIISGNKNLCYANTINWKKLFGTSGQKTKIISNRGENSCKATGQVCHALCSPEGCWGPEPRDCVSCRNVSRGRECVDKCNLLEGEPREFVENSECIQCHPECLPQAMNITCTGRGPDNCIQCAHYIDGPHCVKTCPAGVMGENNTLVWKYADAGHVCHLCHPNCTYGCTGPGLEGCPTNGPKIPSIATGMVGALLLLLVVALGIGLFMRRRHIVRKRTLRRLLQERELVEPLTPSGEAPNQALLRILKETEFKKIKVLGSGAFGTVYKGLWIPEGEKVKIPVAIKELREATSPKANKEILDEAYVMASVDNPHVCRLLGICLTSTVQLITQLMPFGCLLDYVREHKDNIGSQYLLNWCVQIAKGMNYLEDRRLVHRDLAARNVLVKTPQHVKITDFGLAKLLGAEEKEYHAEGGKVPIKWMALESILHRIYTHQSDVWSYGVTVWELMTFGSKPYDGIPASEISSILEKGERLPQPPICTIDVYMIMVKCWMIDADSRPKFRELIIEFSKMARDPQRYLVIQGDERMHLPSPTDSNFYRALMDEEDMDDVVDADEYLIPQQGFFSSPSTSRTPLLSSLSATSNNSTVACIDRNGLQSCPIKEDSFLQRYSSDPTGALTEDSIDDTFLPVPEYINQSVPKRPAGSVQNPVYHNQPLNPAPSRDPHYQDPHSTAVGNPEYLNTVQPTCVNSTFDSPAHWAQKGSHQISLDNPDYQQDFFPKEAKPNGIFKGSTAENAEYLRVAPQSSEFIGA
compound,measurement,setting,value
"COc1ccc2ncnc(Nc3cccc(F)c3)c2c1 [5ay, N-(3-Fluorophenyl)-6-Methoxy-4-Quinazolinamine]",remaining activity at 10 µM,[1]; [11],1%
same,remaining activity at 10 µM,[2]; [11],6%
same,remaining activity at 10 µM,[3]; [12],84%
same,remaining activity at 10 µM,[4]; [12],100%
same,remaining activity at 10 µM,[5]; [12],118%
same,remaining activity at 10 µM,[6]; [12],69%
"Fc1ccc(CNc2ncnc3ccc(F)cc23)cc1 [5aa, 6-Fluoro-N-(4-fluorobenzyl)-4-Quinazolinamine]",remaining activity at 10 µM,[1]; [13],27%
same,remaining activity at 10 µM,[2]; [13],19%
same,remaining activity at 10 µM,[3]; [14],96%
same,remaining activity at 10 µM,[4]; [14],96%
same,remaining activity at 10 µM,[5]; [14],104%
same,remaining activity at 10 µM,[6]; [14],83%
"Fc1ccc2ncnc(NCCc3ccc(Cl)cc3)c2c1 [5at, N-[2-(4-Chlorophenyl)Ethyl]-6-Fluoro-4-Quinazolinamine]",IC50,[7],~1 µM
same,remaining activity at 10 µM,[8]; [15],16%
same,remaining activity at 10 µM,[9]; [15],72%
same,remaining activity at 10 µM,[3]; [15],114%
same,remaining activity at 10 µM,[4]; [15],83%
same,remaining activity at 10 µM,[5]; [15],91%
same,remaining activity at 10 µM,[6]; [15],86%
"Fc1ccc(CCNc2ncnc3ccc(F)cc23)cc1 [5as, 6-Fluoro-N-[2-(4-Fluorophenyl)Ethyl]-4-Quinazolinamine]",remaining activity at 10 µM,[10],27%
same,remaining activity at 10 µM,[8]; [16],12%
same,remaining activity at 10 µM,[9]; [16],46%
same,remaining activity at 10 µM,[3]; [16],93%
same,remaining activity at 10 µM,[4]; [16],87%
same,remaining activity at 10 µM,[5]; [16],105%
same,remaining activity at 10 µM,[6]; [16],88%

# Source: PMC7827406, “Structure–Activity Relationship (SAR) Study of Spautin-1 to Entail the Discovery of Novel NEK4 Inhibitors” (International Journal of Molecular Sciences, 2021)
